The text below walks through data of patent WO2007139036A1, “Compound for controlling endoplasmic reticulum stress, and pharmaceutical composition comprising the compound as active ingredient” (Meiji Dairies Corp, priority 2006, dated 2007).

The subject of experiment [1] is MIN6 cells. Description: Secondary screening: oxidative stress (H2O2)-derived cell death suppression, MIN6 cells. The format is cell-based, mouse. More on the design: key to oxidative stress-derived cell death inhibitory effect (class symbol): 一: 細胞死抑制効果無し; +: その中間程度の抑制効果を有する; ++: ダントロ レンの細胞死抑制効果と同程度. Conditions: H2O2 66 μM, 24 h; for oxidative stress-derived cell death inhibitory effect, compared with N-acetylcysteine (NAC): NAC 1000 μM.

The test system of experiment [2] is MIN6 cells. Kind of experiment: Intracellular protein synthesis by metabolic labeling (35S-Met), MIN6 cells. Type of experiment: cell-based, mouse. Conditions: incubated for more than 24 hours.
For a further experiment, the system named is heme-oxygenase 1 (HO-1). Description: HO-1 expression by Northern blot, MIN6 cells. Type of experiment: cell-based, mouse.
The next experiment deals with CHOP. Kind of experiment: CHOP expression by Northern blot, MIN6 cells. Type of experiment: cell-based, mouse.
Another experiment has as its system XBP1. Description: XBP1 activation by RT-PCR, MIN6 cells. The format is cell-based, mouse.
For another experiment, the system named is GRP78. Kind of experiment: GRP78 expression by Northern blot, MIN6 cells. The format is cell-based, mouse.
Experiment [3] relates to kidney (proximal) tubule cells. Kind of experiment: Third screening: mouse endoplasmic reticulum stress model (tunicamycin), kidney tubules, HE and TUNEL. Type of experiment: in vivo. The settings on record: 10 mg/kg/day intraperitoneal daily for 4 days before tunicamycin 1 mg/kg.
The subject of experiment [4] is rat Parkinson disease model. Conditions: cited from earlier work.
For experiment [5] the following is noted: other models; cited from earlier work.
For experiment [6] the following is noted: Patent Document 1 (JP 2005-247728); cited from earlier work.
[7] abbreviates: pre-administration from 24 h before H2O2 and simultaneous administration.

With `COc1ccc(-c2cc(=O)c3c(OC)c(OC)c(OC)c(OC)c3o2)cc1` [IN19, tangeretin], the “oxidative stress-derived cell death inhibitory effect, compared with N-acetylcysteine (NAC)” value in the experiment on MIN6 cells [1] was “効果はやや小さかった”. Moreover, the “oxidative stress-derived cell death inhibitory effect, compared with α-tocopherol and β-carotene” value with MIN6 cells [1] (setting [7]) is listed as “同程度の効果が認められた”. Also, in the experiment with MIN6 cells [2], the “intracellular protein synthesis (decreased to)” value is on record as “about 60%”. For the same compound, in the experiment with heme-oxygenase 1 (HO-1), the “expression of heme-oxygenase 1 (HO-1)” value is on record as “also increased”. Further, the “expression of CHOP” value in the experiment with CHOP is “also increased”. Moreover, in the experiment on XBP1, the “activation of XBP1” value is “involves administration of IN19”. Besides, the “expression of GRP78” value in the experiment with GRP78 was “at least not increased”. In addition, the “tissue damage in renal tubules” value in experiment [3] (kidney on day 4 after tunicamycin) is “ほぼ完全に抑制された”. Further, in [3] (kidney on day 4 after tunicamycin (TUNEL)), the “cell death in renal tubules” value is listed as “ほぼ完全に抑制された”. In [4], the neuroprotective activity result is reported as “neuroprotective”.
As to `COc1ccc(-c2cc(=O)c3c(OC)c(OC)c(OC)c(OC)c3o2)cc1OC` [IN69, nobiletin], the “oxidative stress-derived cell death inhibitory effect (class symbol)” value with MIN6 cells [1] (setting [7]) is reported as “士”. In experiment [5], the neuroprotective activity entry is “neuroprotective”.
In the case of `COc1ccc(-c2cc(=O)c3c(OC)c(OC)c(OC)cc3o2)cc1OC` [IN88, sinensetin], in the experiment on MIN6 cells [1], the “oxidative stress-derived cell death inhibitory effect, compared with N-acetylcysteine (NAC)” value is listed as “効果はやや小さかった”. Also, the “oxidative stress-derived cell death inhibitory effect, compared with α-tocopherol and β-carotene” value in the experiment with MIN6 cells [1] (setting [7]) is given as “同程度の効果が認められた”.
Turning to `O=c1cc(-c2ccccc2)oc2ccccc12` [flavone], the “oxidative stress-derived cell death inhibitory effect, compared with N-acetylcysteine (NAC)” value in the experiment on MIN6 cells [1] is listed as “効果はやや小さかった”. Moreover, the “oxidative stress-derived cell death inhibitory effect, compared with α-tocopherol and β-carotene” value in the experiment on MIN6 cells [1] (setting [7]) is given as “同程度の効果が認められた”.
Consider `CCCCCC=CCC=CCCCCCCCC(=O)OCC(COP(=O)(O)OCCN)OC(=O)CCCCCCCC=CCC=CCCCCC` (stereo not drawn) [ジリノレオイルホスファチジルエタノールァミン, dilinoleoylphosphatidylethanolamine], for which, in experiment [6], the “cell death induction suppressing activity” value is listed as “細胞死誘導抑制活性” and the “endoplasmic reticulum stress suppressing activity” value is recorded as “小胞体ストレス抑制活性”.
